Test results as given in BindingDB's records for doi:10.1016/S0960-894X(01)80331-0 (1994).

What was measured:
[1] = In Vitro Binding affinity againist 5-hydroxytryptamine 2C receptor by displacing [3H]mesulergine from pig cortex
[2] = In Vitro Binding affinity againist 5-HT1A receptor by displacing [3H]8-OH-DPAT from pig cortex
[3] = In Vitro Binding affinity againist 5-hydroxytryptamine 1D receptor by displacing [125I]GTI from pig caudate

Compound	IC50 [1] [nM]	IC50 [2] [nM]	IC50 [3] [nM]
NCCc1coc2ccc(C(N)=O)cc12	661	4.6	43
NCCC1COc2ccc(C(N)=O)cc21 (stereo unspecified)	8130	72	776
